Reference: the kinase profiling compilation of Christmann-Franck et al. (2016)
One block for each molecule: values may come before it.

Columns and labels:
Assay in all cases: KINOMEscan competition binding
Settings in all cases: compound 10.0 µM
DCLK1 (human) = DCLK1 (human) (UniProt O15075)
DCLK2 (human) = DCLK2 (human) (UniProt Q8N568)
GAK (human) = GAK (human) (UniProt O14976)
MAPK7 (human) = MAPK7 (human) (UniProt Q13164)
MYLK (human) = MYLK (human) (UniProt Q15746)
NLK (human) = NLK (human) (UniProt Q9UBE8)
PKN1 (human) = PKN1 (human) (UniProt Q16512)
PLK1 (human) = PLK1 (human) (UniProt P53350)
Sequence of PLK1 (human) (P53350 whole entry, looked up): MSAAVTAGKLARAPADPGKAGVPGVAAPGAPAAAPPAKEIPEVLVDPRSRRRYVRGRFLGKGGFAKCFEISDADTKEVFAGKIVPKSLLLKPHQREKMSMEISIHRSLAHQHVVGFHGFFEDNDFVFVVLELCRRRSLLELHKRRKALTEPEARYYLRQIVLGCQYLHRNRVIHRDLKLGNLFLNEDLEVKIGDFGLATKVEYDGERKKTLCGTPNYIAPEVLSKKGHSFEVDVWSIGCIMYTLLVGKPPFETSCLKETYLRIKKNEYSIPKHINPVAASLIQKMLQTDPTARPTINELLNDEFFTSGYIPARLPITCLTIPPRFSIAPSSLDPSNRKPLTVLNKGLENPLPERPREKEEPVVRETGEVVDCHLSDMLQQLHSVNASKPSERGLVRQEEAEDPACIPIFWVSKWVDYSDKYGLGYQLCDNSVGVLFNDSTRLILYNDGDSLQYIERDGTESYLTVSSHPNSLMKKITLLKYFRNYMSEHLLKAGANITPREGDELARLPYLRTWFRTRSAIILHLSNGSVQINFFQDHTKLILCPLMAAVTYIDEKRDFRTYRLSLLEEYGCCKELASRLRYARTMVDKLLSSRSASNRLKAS

PLK3 (human) = PLK3 (human) (UniProt Q9H4B4)
PRKCQ (human) = PRKCQ (human) (UniProt Q04759)
TTK (human) = TTK (human) (UniProt P33981)
[1] = tested on: ABL1 (human), P00519 [T315I]
ACVR1 (human) = ACVR1 (human) (UniProt Q04771)
AURKA (human) = AURKA (human) (UniProt O14965)
AURKB (human) = AURKB (human) (UniProt Q96GD4)
AURKC (human) = AURKC (human) (UniProt Q9UQB9)
BMPR1B (human) = BMPR1B (human) (UniProt O00238)
CAMKK2 (human) = CAMKK2 (human) (UniProt Q96RR4)
CLK2 (human) = CLK2 (human) (UniProt P49760)
CSF1R (human) = CSF1R (human) (UniProt P07333)
FGFR4 (human) = FGFR4 (human) (UniProt P22455)
FLT3 (human) = FLT3 (human) (UniProt P36888)
[2] = tested on: FLT3 (human), P36888 [ITD]
[3] = tested on: FLT3 (human), P36888 [K663Q]
KIT (human) = KIT (human) (UniProt P10721)
[4] = tested on: KIT (human), P10721 [V559D/V654A]
[5] = tested on: KIT (human), P10721 [V559D]
MAP3K3 (human) = MAP3K3 (human) (UniProt Q99759)
MKNK2 (human) = MKNK2 (human) (UniProt Q9HBH9)
NUAK1 (human) = NUAK1 (human) (UniProt O60285)
NUAK2 (human) = NUAK2 (human) (UniProt Q9H093)
PDGFRA (human) = PDGFRA (human) (UniProt P16234)
PDGFRB (human) = PDGFRB (human) (UniProt P09619)
PIK3CA (human) = PIK3CA (human) (UniProt P42336)
PIK3CD (human) = PIK3CD (human) (UniProt O00329)
PIK3CG (human) = PIK3CG (human) (UniProt P48736)
PIP5K1A (human) = PIP5K1A (human) (UniProt Q99755)
Sequence of PIP5K1A (human) (Q99755 whole entry, looked up): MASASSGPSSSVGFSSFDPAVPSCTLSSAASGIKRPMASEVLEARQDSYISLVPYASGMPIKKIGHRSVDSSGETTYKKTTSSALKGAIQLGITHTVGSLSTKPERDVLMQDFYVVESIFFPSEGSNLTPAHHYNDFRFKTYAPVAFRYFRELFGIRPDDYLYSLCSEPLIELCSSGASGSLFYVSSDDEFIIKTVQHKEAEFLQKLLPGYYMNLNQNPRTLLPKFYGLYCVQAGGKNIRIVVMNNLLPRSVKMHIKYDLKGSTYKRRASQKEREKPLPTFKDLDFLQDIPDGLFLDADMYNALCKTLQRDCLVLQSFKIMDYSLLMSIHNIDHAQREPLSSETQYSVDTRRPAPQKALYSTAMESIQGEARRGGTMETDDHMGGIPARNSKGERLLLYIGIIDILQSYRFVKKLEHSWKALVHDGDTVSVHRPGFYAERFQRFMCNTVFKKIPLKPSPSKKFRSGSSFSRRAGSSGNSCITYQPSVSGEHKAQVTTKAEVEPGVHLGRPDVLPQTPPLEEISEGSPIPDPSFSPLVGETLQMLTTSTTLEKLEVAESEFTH

PLK4 (human) = PLK4 (human) (UniProt O00444)
PRKAA1 (human) = PRKAA1 (human) (UniProt Q13131)
PRKD1 (human) = PRKD1 (human) (UniProt Q15139)
PRKD3 (human) = PRKD3 (human) (UniProt O94806)
[6] = tested on: RET (human), P07949 [V804L]
Sequence of RET (human), P07949 [V804L] (P07949 whole entry V804L, looked up): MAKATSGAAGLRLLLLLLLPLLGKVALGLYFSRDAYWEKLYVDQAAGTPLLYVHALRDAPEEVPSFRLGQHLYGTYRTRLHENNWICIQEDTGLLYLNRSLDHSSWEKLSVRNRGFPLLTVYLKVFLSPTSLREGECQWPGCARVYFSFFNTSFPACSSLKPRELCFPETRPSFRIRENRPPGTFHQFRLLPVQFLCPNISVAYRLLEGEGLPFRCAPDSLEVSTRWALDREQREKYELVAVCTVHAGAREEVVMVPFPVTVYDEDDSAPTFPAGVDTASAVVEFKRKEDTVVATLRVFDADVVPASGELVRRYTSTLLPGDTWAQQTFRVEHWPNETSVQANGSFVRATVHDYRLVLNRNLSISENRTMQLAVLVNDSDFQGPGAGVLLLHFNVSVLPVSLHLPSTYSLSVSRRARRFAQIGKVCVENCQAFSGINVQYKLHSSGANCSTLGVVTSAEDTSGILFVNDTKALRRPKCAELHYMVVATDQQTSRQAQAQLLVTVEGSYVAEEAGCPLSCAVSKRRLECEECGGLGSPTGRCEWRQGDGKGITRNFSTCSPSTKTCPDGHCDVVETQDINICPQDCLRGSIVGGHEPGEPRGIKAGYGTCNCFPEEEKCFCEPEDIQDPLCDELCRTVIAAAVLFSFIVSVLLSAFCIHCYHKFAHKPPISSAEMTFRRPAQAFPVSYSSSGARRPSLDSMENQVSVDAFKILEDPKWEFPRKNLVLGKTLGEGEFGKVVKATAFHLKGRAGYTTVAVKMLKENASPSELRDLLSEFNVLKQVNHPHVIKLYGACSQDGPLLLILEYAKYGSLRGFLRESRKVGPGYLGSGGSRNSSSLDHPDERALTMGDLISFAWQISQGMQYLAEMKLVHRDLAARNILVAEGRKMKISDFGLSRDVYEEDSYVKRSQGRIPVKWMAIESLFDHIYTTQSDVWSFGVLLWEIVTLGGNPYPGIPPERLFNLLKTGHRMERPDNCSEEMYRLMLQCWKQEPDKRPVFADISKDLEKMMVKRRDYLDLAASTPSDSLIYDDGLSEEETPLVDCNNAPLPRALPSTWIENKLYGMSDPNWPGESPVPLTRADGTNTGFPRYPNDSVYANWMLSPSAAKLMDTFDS

ROS1 (human) = ROS1 (human) (UniProt P08922)
RPS6KA1 KD2 (human) = RPS6KA1 KD2 (human) (UniProt Q15418)
RPS6KA6 KD2 (human) = RPS6KA6 KD2 (human) (UniProt Q9UK32)
STK16 (human) = STK16 (human) (UniProt O75716)
TAOK1 (human) = TAOK1 (human) (UniProt Q7L7X3)
TAOK3 (human) = TAOK3 (human) (UniProt Q9H2K8)
TNK1 (human) = TNK1 (human) (UniProt Q13470)
TNK2 (human) = TNK2 (human) (UniProt Q07912)
[7] = target: TYK2 JH1 catalytic (human) (UniProt P29597)
BRSK2 (human) = BRSK2 (human) (UniProt Q8IWQ3)
FLT4 (human) = FLT4 (human) (UniProt P35916)
MARK4 (human) = MARK4 (human) (UniProt Q96L34)
MERTK (human) = MERTK (human) (UniProt Q12866)
PRKCD (human) = PRKCD (human) (UniProt Q05655)
[8] = tested on: RET (human), P07949 [M918T]
SRPK1 (human) = SRPK1 (human) (UniProt Q96SB4)
STK33 (human) = STK33 (human) (UniProt Q9BYT3)

Sequence of DCLK2 (human) (Q8N568 whole entry, looked up): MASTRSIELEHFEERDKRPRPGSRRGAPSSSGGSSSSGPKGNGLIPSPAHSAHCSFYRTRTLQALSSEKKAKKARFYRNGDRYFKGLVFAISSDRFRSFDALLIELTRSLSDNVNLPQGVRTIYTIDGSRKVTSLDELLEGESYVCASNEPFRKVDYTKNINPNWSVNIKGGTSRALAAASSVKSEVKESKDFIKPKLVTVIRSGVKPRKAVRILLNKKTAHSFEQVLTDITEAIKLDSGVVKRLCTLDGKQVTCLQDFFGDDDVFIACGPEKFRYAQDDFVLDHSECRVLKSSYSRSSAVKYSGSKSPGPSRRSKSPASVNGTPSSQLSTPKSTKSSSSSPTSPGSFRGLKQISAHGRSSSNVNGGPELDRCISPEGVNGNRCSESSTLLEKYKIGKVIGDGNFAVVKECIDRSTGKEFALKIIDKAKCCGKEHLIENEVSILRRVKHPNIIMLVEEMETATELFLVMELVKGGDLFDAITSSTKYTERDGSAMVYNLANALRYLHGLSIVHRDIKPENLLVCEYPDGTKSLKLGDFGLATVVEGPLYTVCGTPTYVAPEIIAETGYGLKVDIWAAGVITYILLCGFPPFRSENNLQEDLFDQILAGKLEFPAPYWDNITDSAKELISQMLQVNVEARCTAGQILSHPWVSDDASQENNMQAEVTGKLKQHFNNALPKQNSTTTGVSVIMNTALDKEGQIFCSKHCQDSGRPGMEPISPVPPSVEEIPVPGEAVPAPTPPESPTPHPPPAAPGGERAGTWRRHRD
Sequence of GAK (human) (O14976 whole entry, looked up): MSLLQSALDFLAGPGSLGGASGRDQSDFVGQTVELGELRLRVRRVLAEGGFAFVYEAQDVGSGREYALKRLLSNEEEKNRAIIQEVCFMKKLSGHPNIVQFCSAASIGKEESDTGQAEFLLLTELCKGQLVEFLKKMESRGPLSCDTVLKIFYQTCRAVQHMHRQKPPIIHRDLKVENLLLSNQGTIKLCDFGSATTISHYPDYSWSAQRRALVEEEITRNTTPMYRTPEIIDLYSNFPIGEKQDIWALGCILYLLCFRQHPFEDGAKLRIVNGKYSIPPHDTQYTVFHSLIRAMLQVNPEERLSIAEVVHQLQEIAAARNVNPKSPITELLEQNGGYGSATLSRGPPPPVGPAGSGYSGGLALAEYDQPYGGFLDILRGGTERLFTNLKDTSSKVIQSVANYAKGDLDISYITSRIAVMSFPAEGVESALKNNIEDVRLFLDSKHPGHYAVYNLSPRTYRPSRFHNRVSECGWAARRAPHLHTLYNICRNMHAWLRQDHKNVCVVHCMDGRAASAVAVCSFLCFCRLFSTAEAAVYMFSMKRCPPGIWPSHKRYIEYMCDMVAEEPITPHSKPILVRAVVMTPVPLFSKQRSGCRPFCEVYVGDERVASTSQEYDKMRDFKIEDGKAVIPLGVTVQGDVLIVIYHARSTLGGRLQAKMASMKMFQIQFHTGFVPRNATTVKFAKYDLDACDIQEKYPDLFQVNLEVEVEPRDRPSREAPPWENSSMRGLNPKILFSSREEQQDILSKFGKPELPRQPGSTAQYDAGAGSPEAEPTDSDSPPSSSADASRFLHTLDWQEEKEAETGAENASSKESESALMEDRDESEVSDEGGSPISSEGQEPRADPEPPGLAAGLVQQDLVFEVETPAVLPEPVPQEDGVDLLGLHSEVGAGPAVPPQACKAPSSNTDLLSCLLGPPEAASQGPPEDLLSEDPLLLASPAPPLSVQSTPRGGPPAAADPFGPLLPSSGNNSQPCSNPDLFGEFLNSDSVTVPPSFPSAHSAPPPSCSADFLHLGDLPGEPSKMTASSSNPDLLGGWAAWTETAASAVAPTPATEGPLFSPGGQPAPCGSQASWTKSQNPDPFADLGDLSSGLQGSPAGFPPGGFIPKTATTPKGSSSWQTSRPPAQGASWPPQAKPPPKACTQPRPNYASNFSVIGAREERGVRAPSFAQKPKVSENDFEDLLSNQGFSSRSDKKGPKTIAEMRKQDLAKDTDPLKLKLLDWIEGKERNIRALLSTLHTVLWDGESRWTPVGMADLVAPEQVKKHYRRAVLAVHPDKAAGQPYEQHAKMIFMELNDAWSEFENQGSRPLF
Sequence of DCLK1 (human) (O15075 whole entry, looked up): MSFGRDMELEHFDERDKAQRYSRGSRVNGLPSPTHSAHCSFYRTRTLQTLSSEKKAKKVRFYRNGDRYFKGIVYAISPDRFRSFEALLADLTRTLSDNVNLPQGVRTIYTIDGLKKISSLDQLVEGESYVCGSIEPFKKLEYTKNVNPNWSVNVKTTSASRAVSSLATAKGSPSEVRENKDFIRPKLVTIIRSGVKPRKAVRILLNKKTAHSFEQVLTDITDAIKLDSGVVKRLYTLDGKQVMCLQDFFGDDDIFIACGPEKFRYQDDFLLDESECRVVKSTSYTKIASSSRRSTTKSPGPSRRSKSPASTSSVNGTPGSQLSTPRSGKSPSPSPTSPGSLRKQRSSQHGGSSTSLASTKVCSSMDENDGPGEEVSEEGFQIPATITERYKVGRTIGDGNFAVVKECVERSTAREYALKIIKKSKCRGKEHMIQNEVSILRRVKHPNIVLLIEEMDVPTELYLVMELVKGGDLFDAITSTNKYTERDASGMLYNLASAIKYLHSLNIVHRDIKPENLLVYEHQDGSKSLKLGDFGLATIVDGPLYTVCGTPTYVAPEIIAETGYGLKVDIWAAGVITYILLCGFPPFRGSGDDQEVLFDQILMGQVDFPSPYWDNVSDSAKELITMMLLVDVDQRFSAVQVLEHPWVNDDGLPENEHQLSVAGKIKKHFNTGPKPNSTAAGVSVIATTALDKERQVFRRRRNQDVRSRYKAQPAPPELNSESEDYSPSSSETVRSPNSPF

kinase still bound, per cent of control (DCLK1 (human)): 29% | kinase still bound, per cent of control (DCLK2 (human)): 24% | kinase still bound, per cent of control (GAK (human)): 33% | kinase still bound, per cent of control (MAPK7 (human)): 0.15% | kinase still bound, per cent of control (MYLK (human)): 25% | kinase still bound, per cent of control (NLK (human)): 25% | kinase still bound, per cent of control (PKN1 (human)): 27% | kinase still bound, per cent of control (PLK1 (human)): 16% | kinase still bound, per cent of control (PLK3 (human)): 1.7% | kinase still bound, per cent of control (PRKCQ (human)): 31% | kinase still bound, per cent of control (TTK (human)): 13%
SMILES: COc1cc(C(N)=O)ccc1Nc1ncc2c(n1)N(C1CCCC1)[C@@H]1CCC[C@@H]1C(=O)N2C

kinase still bound, per cent of control [1]: 19% | kinase still bound, per cent of control (ACVR1 (human)): 29% | kinase still bound, per cent of control (AURKA (human)): 8.2% | kinase still bound, per cent of control (AURKB (human)): 25% | kinase still bound, per cent of control (AURKC (human)): 3.7% | kinase still bound, per cent of control (BMPR1B (human)): 19% | kinase still bound, per cent of control (CAMKK2 (human)): 31% | kinase still bound, per cent of control (CLK2 (human)): 32% | kinase still bound, per cent of control (CSF1R (human)): 14% | kinase still bound, per cent of control (DCLK1 (human)): 0.3% | kinase still bound, per cent of control (DCLK2 (human)): 0.5% | kinase still bound, per cent of control (FGFR4 (human)): 25% | kinase still bound, per cent of control (FLT3 (human)): 8.1% | kinase still bound, per cent of control [2]: 33% | kinase still bound, per cent of control [3]: 12% | kinase still bound, per cent of control (GAK (human)): 33% | kinase still bound, per cent of control (KIT (human)): 3.1% | kinase still bound, per cent of control [4]: 26% | kinase still bound, per cent of control [5]: 1.8% | kinase still bound, per cent of control (MAP3K3 (human)): 2.2% | kinase still bound, per cent of control (MAPK7 (human)): 0% | kinase still bound, per cent of control (MKNK2 (human)): 1.6% | kinase still bound, per cent of control (NUAK1 (human)): 30% | kinase still bound, per cent of control (NUAK2 (human)): 22% | kinase still bound, per cent of control (PDGFRA (human)): 8% | kinase still bound, per cent of control (PDGFRB (human)): 2.6% | kinase still bound, per cent of control (PIK3CA (human)): 33% | kinase still bound, per cent of control (PIK3CD (human)): 33% | kinase still bound, per cent of control (PIK3CG (human)): 2.2% | kinase still bound, per cent of control (PIP5K1A (human)): 26% | kinase still bound, per cent of control (PLK1 (human)): 24% | kinase still bound, per cent of control (PLK4 (human)): 7.2% | kinase still bound, per cent of control (PRKAA1 (human)): 23% | kinase still bound, per cent of control (PRKD1 (human)): 21% | kinase still bound, per cent of control (PRKD3 (human)): 20% | kinase still bound, per cent of control [6]: 34% | kinase still bound, per cent of control (ROS1 (human)): 28% | kinase still bound, per cent of control (RPS6KA1 KD2 (human)): 34% | kinase still bound, per cent of control (RPS6KA6 KD2 (human)): 30% | kinase still bound, per cent of control (STK16 (human)): 31% | kinase still bound, per cent of control (TAOK1 (human)): 1% | kinase still bound, per cent of control (TAOK3 (human)): 0.4% | kinase still bound, per cent of control (TNK1 (human)): 0.6% | kinase still bound, per cent of control (TNK2 (human)): 31% | kinase still bound, per cent of control [7]: 18%
SMILES: CN1C(=O)c2ccccc2N(C)c2nc(Nc3ccc(N4CCC(O)CC4)cn3)ncc21

kinase still bound, per cent of control (BRSK2 (human)): 0% | kinase still bound, per cent of control (FLT4 (human)): 0% | kinase still bound, per cent of control (MARK4 (human)): 0% | kinase still bound, per cent of control (MERTK (human)): 34% | kinase still bound, per cent of control (PIP5K1A (human)): 6.4% | kinase still bound, per cent of control (PLK1 (human)): 17% | kinase still bound, per cent of control (PRKCD (human)): 0% | kinase still bound, per cent of control [8]: 0% | kinase still bound, per cent of control [6]: 0% | kinase still bound, per cent of control (SRPK1 (human)): 0% | kinase still bound, per cent of control (STK33 (human)): 32%
SMILES: COc1cc(C(=O)NC2CCN(C)CC2)ccc1Nc1ncc2c(n1)N(C1CCCC1)CCC(=O)N2C(C)C
